# Measurements from PubChem BioAssay (NCI).
#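 Interpolation was linear, between the two tested concentrations surrounding the appropriate level; five concentrations were tested over 48 hours in 96-well plates. TGI: concentration producing complete growth inhibition.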
# Columns and labels:
# Assay in all cases: NCI tumour cell line growth inhibition, 48 h
# RXF-631 renal = system: RXF-631 renal
# MALME-3M melanoma = system: MALME-3M melanoma
# UACC-62 melanoma = system: UACC-62 melanoma
# NCI-H522 lung = system: NCI-H522 lung
# HL-60(TB) leukemia = system: HL-60(TB) leukemia
# K-562 leukemia = system: K-562 leukemia
# LOX IMVI melanoma = system: LOX IMVI melanoma
# DMS 273 small cell lung = system: DMS 273 small cell lung
# UACC-257 melanoma = system: UACC-257 melanoma
# SK-MEL-28 melanoma = system: SK-MEL-28 melanoma
# SK-OV-3 ovarian = system: SK-OV-3 ovarian
# OVCAR-5 ovarian = system: OVCAR-5 ovarian
# NCI-H460 lung = system: NCI-H460 lung
# HOP-62 NSCLC = system: HOP-62 NSCLC
# HCT-15 colon = system: HCT-15 colon
# EKVX NSCLC = system: EKVX NSCLC
# DLD-1 colon = system: DLD-1 colon
# SK-MEL-2 melanoma = system: SK-MEL-2 melanoma
# SNB-75 CNS = system: SNB-75 CNS
# NCI-H23 lung = system: NCI-H23 lung
# UO-31 renal = system: UO-31 renal
# SW-620 colon = system: SW-620 colon
# SK-MEL-5 melanoma = system: SK-MEL-5 melanoma
# COLO 205 colon = system: COLO 205 colon
# DMS 114 small cell lung = system: DMS 114 small cell lung
# KM20L2 colon = system: KM20L2 colon
# RXF 393 renal = system: RXF 393 renal
# OVCAR-3 ovarian = system: OVCAR-3 ovarian
# A549 NSCLC = system: A549 NSCLC
# SF-295 CNS = system: SF-295 CNS
# LXFL 529 NSCLC = system: LXFL 529 NSCLC
# SF-539 CNS = system: SF-539 CNS
# ACHN renal = system: ACHN renal
# 786-0 renal = system: 786-0 renal
# OVCAR-8 ovarian = system: OVCAR-8 ovarian
# HCC-2998 colon = system: HCC-2998 colon
# SN12C renal = system: SN12C renal
# IGROV1 ovarian = system: IGROV1 ovarian
# SR leukemia = system: SR leukemia
# RPMI-8226 leukemia = system: RPMI-8226 leukemia
# SNB-19 CNS = system: SNB-19 CNS
# HT29 colon = system: HT29 colon
# HCT-116 colon = system: HCT-116 colon
# U251 CNS = system: U251 CNS
# SNB-78 CNS = system: SNB-78 CNS
# SF-268 CNS = system: SF-268 CNS
# NCI-H226 lung = system: NCI-H226 lung
# HOP-92 NSCLC = system: HOP-92 NSCLC
# M14 melanoma = system: M14 melanoma
# TK-10 renal = system: TK-10 renal
# MOLT-4 leukemia = system: MOLT-4 leukemia
# HOP-18 NSCLC = system: HOP-18 NSCLC
# M19-MEL melanoma = system: M19-MEL melanoma
# KM12 colon = system: KM12 colon
# CCRF-CEM leukemia = system: CCRF-CEM leukemia
compound,measurement,setting,value
COC(=O)/C=C(\C(=O)OC)c1c2c3c(cc(OC)c(OC)c3c3ccccc13)CCN2C,TGI,RXF-631 renal,> 100 µM
same,TGI,MALME-3M melanoma,> 100 µM
same,TGI,UACC-62 melanoma,> 100 µM
same,TGI,NCI-H522 lung,74 µM
same,TGI,HL-60(TB) leukemia,56.3 µM
same,TGI,K-562 leukemia,90.8 µM
same,TGI,LOX IMVI melanoma,> 100 µM
same,TGI,DMS 273 small cell lung,50.9 µM
same,TGI,UACC-257 melanoma,89.7 µM
same,TGI,SK-MEL-28 melanoma,> 100 µM
same,TGI,SK-OV-3 ovarian,> 100 µM
same,TGI,OVCAR-5 ovarian,> 100 µM
same,TGI,NCI-H460 lung,> 100 µM
same,TGI,HOP-62 NSCLC,76.7 µM
same,TGI,HCT-15 colon,> 100 µM
same,TGI,EKVX NSCLC,> 100 µM
same,TGI,DLD-1 colon,> 100 µM
same,TGI,SK-MEL-2 melanoma,> 100 µM
same,TGI,SNB-75 CNS,> 100 µM
same,TGI,NCI-H23 lung,> 100 µM
same,TGI,UO-31 renal,> 100 µM
same,TGI,SW-620 colon,> 100 µM
same,TGI,SK-MEL-5 melanoma,34.3 µM
same,TGI,COLO 205 colon,31.7 µM
same,TGI,DMS 114 small cell lung,80.7 µM
same,TGI,KM20L2 colon,> 100 µM
same,TGI,RXF 393 renal,> 100 µM
same,TGI,OVCAR-3 ovarian,> 100 µM
same,TGI,A549 NSCLC,> 100 µM
same,TGI,SF-295 CNS,> 100 µM
same,TGI,LXFL 529 NSCLC,> 100 µM
same,TGI,SF-539 CNS,75.4 µM
same,TGI,ACHN renal,> 100 µM
same,TGI,786-0 renal,> 100 µM
same,TGI,OVCAR-8 ovarian,> 100 µM
same,TGI,HCC-2998 colon,> 100 µM
same,TGI,SN12C renal,> 100 µM
same,TGI,IGROV1 ovarian,99.4 µM
same,TGI,SR leukemia,> 100 µM
same,TGI,RPMI-8226 leukemia,> 100 µM
same,TGI,SNB-19 CNS,> 100 µM
same,TGI,HT29 colon,> 100 µM
same,TGI,HCT-116 colon,> 100 µM
same,TGI,U251 CNS,> 100 µM
same,TGI,SNB-78 CNS,> 100 µM
same,TGI,SF-268 CNS,> 100 µM
same,TGI,NCI-H226 lung,> 100 µM
same,TGI,HOP-92 NSCLC,> 100 µM
same,TGI,M14 melanoma,> 100 µM
same,TGI,TK-10 renal,> 100 µM
same,TGI,MOLT-4 leukemia,89.5 µM
same,TGI,HOP-18 NSCLC,> 100 µM
same,TGI,M19-MEL melanoma,> 100 µM
same,TGI,KM12 colon,> 100 µM
same,TGI,CCRF-CEM leukemia,85.4 µM
